Test results from patent publication US11459321B2, “Broad spectrum antiviral compositions and methods” (priority 2017, dated 2022).

System: human cytomegalovirus (HCMV)
Experiment: microbe, parasite or virus in culture
Assay type: cell-based
Conditions: Human MRCS cells, 0.01 IU per cell, virus yield at 7 days post infection, mCherry positive cells

| Structure (SMILES) | IC50 (Human betaherpesvirus 5, 168 h) [µM] | IC50 [µM] |
| --- | --- | --- |
| CC(C)c1cc(Cc2cnc(N3CCc4ccc(-c5cn(C)nn5)cc4C3)s2)cc(-n2cccn2)c1 [Example 1] | 11.7 |  |
| Cn1cc(-c2ccc3c(c2)CN(c2ncc(Cc4ccc(-n5cccn5)cc4)s2)CC3)nn1 [Example 2] | 1.17 |  |
| Cn1cc(-c2ccc3c(c2)CN(c2ncc(Cc4cccc(-n5cccn5)c4)s2)CC3)nn1 [Example 3] | 1.91 |  |
| c1cc(Cc2cnc(N3CCc4ccc(-c5c[nH]nn5)cc4C3)s2)cc(-n2cccn2)c1 [Example 4] | 0.758 |  |
| c1cnn(-c2ccc(Cc3cnc(N4CCc5ccc(-c6c[nH]nn6)cc5C4)s3)cc2)c1 [Example 5] | 0.807 |  |
| Cc1nc(-c2ccc3c(c2)CN(c2ncc(Cc4ccc(-n5cccn5)cc4)s2)CC3)no1 [Example 6] | 3.37 |  |
| COCCn1nncc1-c1ccc2c(c1)CN(c1ncc(Cc3ccc(-n4cccn4)cc3)s1)CC2 [Example 7] | 1.7 |  |
| COCCn1nncc1-c1ccc2c(c1)CN(c1ncc(Cc3cccc(-n4cccn4)c3)s1)CC2 [Example 8] | 2.01 |  |
| c1cnn(-c2ccc(Cc3cnc(N4CCc5ccc(-n6ccnc6)cc5C4)s3)cc2)c1 [Example 9] | 0.479 |  |
| COCCn1cc(-c2ccc3c(c2)CN(c2ncc(Cc4ccc(-n5cccn5)cc4)s2)CC3)nn1 [Example 11] | 1.7 |  |
| COCCn1cc(-c2ccc3c(c2)CN(c2ncc(Cc4cccc(-n5cccn5)c4)s2)CC3)nn1 [Example 12] | 5.98 |  |
| Cc1cn(-c2ccc3c(c2)CN(c2ncc(Cc4ccc(-n5cccn5)cc4)s2)CC3)cn1 [Example 13] | 1.06 |  |
| Cc1cn(-c2ccc3c(c2)CN(c2ncc(Cc4ccc(-n5cccn5)cc4)s2)CC3)c(C)n1 [Example 14] | 0.453 |  |
| c1cc(Cc2cnc(N3CCc4ccc(-c5nc[nH]n5)cc4C3)s2)cc(-n2cccn2)c1 [Example 15] | 1.85 |  |
| c1cnn(-c2ccc(Cc3cnc(N4CCc5ccc(-c6nc[nH]n6)cc5C4)s3)cc2)c1 [Example 16] | 0.2 |  |
| c1cn(-c2ccc(Cc3cnc(N4CCc5ccc(-n6ccnc6)cc5C4)s3)cc2)cn1 [Example 17] | 0.748 |  |
| c1cnn(-c2ccc(Cc3cnc(N4CCc5cc(-n6ccnc6)ccc5C4)s3)cc2)c1 [Example 18] |  | 1.08 |
| Cc1cn(-c2ccc3c(c2)CN(c2ncc(Cc4cccc(-n5cccn5)c4)s2)CC3)c(C)n1 [Example 19] | 1.3 |  |
| c1cnn(-c2ccc(Cc3cnc(N4CCc5ccc(-c6ncc[nH]6)cc5C4)s3)cc2)c1 [Example 20] | 5.27 |  |
| Cc1cn(-c2ccc3c(c2)CN(c2ncc(Cc4cccc(-n5cccn5)c4)s2)CC3)cn1 [Example 21] | 2.62 |  |
| COc1ccc(Cc2cnc(N3CCc4ccc(-n5cc(C)nc5C)cc4C3)s2)cc1-n1cccn1 [Example 22] | 0.306 |  |
| Cc1cn(-c2ccc(Cc3cnc(N4CCc5ccc(-n6cc(C)nc6C)cc5C4)s3)cc2)c(C)n1 [Example 23] | 0.707 |  |
| O=C1OCCN1c1ccc2c(c1)CN(c1ncc(Cc3ccc(-n4cccn4)cc3)s1)CC2 [Example 24] | 0.353 |  |

| Structure (SMILES) | IC50 (Human betaherpesvirus 5, 168 h) [µM] | IC50 [µM] |
| --- | --- | --- |
| O=C1NCCN1c1ccc2c(c1)CN(c1ncc(Cc3ccc(-n4cccn4)cc3)s1)CC2 [Example 25] | 0.911 |  |
| CN1CCN(c2ccc3c(c2)CN(c2ncc(Cc4ccc(-n5cccn5)cc4)s2)CC3)C1=O [Example 26] | 0.637 |  |
| COc1cc(Cc2cnc(N3CCc4ccc(-n5cc(C)nc5C)cc4C3)s2)ccc1-n1cccn1 [Example 27] | 0.345 |  |
| O=C1OCCN1c1ccc2c(c1)CN(c1ncc(Cc3cccc(-n4cccn4)c3)s1)CC2 [Example 28] | 1.89 |  |
| O=C1OCCN1c1ccc2c(c1)CN(c1ncc(Cc3ccc(-c4ncccn4)cc3)s1)CC2 [Example 29] | 0.858 |  |
| N#Cc1ccc(Cc2cnc(N3CCc4ccc(N5CCOC5=O)cc4C3)s2)cc1 [Example 30] | 4.42 |  |
| O=C1OCCN1c1ccc2c(c1)CN(c1ncc(Cc3ccc(N4CCOCC4)cc3)s1)CC2 [Example 31] | 0.803 |  |
| O=C1OCCN1c1ccc(Cc2cnc(N3CCc4ccc(N5CCOC5=O)cc4C3)s2)cc1 [Example 32] | 0.979 |  |
| O=C1OCCN1c1ccc2c(c1)CN(c1ncc(Cc3cccc(N4CCS(=O)(=O)CC4)c3)s1)CC2 [Example 33] | 0.903 |  |
| CS(=O)(=O)c1cccc(Cc2cnc(N3CCc4ccc(N5CCOC5=O)cc4C3)s2)c1 [Example 34] | 0.633 |  |
| O=C1OCCN1c1ccc2c(c1)CN(c1ncc(Cc3cccc(N4CCOCC4)c3)s1)CC2 [Example 35] | 0.891 |  |
| O=C1OCCN1c1ccc2c(c1)CN(c1ncc(Cc3ccc(N4CCS(=O)(=O)CC4)cc3)s1)CC2 [Example 36] | 0.666 |  |
| O=C1NCCCN1c1ccc2c(c1)CN(c1ncc(Cc3ccc(-n4cccn4)cc3)s1)CC2 [Example 37] | 9.96 |  |
| CN1CCCN(c2ccc3c(c2)CN(c2ncc(Cc4ccc(-n5cccn5)cc4)s2)CC3)C1=O [Example 38] | 3.49 |  |
| N#Cc1cccc(Cc2cnc(N3CCc4ccc(N5CCOC5=O)cc4C3)s2)c1 [Example 39] | 2.75 |  |
| O=C1OCCN1c1cccc(Cc2cnc(N3CCc4ccc(N5CCOC5=O)cc4C3)s2)c1 [Example 40] | 0.956 |  |
| O=C1OCCN1c1ccc2c(c1)CN(c1ncc(Cc3ccc(-n4cccn4)nc3)s1)CC2 [Example 41] | 0.553 |  |
| O=C1COCCN1c1ccc2c(c1)CN(c1ncc(Cc3ccc(-n4cccn4)cc3)s1)CC2 [Example 42] | 2.47 |  |
| CS(=O)(=O)c1ccc(Cc2cnc(N3CCc4ccc(N5CCOC5=O)cc4C3)s2)cc1 [Example 43] | 0.617 |  |
| Cc1cn(-c2ccc(Cc3cnc(N4CCc5ccc(N6CCOC6=O)cc5C4)s3)cc2)c(C)n1 [Example 44] | 0.552 |  |
| COCCN1CCCN(c2ccc3c(c2)CN(c2ncc(Cc4ccc(-n5cccn5)cc4)s2)CC3)C1=O [Example 45] | 1.78 |  |
| Cc1cn(-c2ccc3c(c2)CN(c2ncc(Cc4ccc(N5CCOCC5)cc4)s2)CC3)c(C)n1 [Example 46] | 0.605 |  |
| Cc1cnc(C)n1-c1ccc2c(c1)CN(c1ncc(Cc3ccc(N4CCOCC4)cc3)s1)CC2 [Example 47] | 0.796 |  |

| Structure (SMILES) | IC50 (Human betaherpesvirus 5, 168 h) [µM] | IC50 [µM] |
| --- | --- | --- |
| Cc1cn(-c2ccc3c(c2)CN(c2ncc(Cc4ccc(N5CCS(=O)(=O)CC5)cc4)s2)CC3)c(C)n1 [Example 48] | 0.195 |  |
| O=C1CCCN1c1ccc2c(c1)CN(c1ncc(Cc3ccc(-c4ncccn4)cc3)s1)CC2 [Example 49] | 0.516 |  |
| O=C1CCCN1c1ccc2c(c1)CN(c1ncc(Cc3ccc(N4CCOCC4)cc3)s1)CC2 [Example 50] | 0.613 |  |
| O=C1CCCN1c1ccc2c(c1)CN(c1ncc(Cc3ccc(N4CCS(=O)(=O)CC4)cc3)s1)CC2 [Example 51] | 0.737 |  |
| CN1CCN(c2ccc3c(c2)CN(c2ncc(Cc4ccc(-c5ncccn5)cc4)s2)CC3)C1=O [Example 52] | 1.36 |  |
| O=C1NCCN1c1ccc2c(c1)CN(c1ncc(Cc3ccc(-c4ncccn4)cc3)s1)CC2 [Example 53] | > 4.17 |  |
| c1cnc(-c2ccc(Cc3cnc(N4CCc5ccc(N6CCOCC6)cc5C4)s3)cc2)nc1 [Example 54] | 1.09 |  |
| O=C1OCCN1c1ccc2c(c1)CN(c1ncc(Cc3cncc(-n4cccn4)c3)s1)CC2 [Example 55] | 3.83 |  |
| Cc1cn(-c2ccc3c(c2)CN(c2ncc(Cc4ccc(N5CCOC5=O)cc4)s2)CC3)c(C)n1 [Example 56] | 0.317 |  |
| CN1CCN(c2ccc3c(c2)CN(c2ncc(Cc4ccc(N5CCOC5=O)cc4)s2)CC3)C1=O [Example 57] | 0.742 |  |
| O=C1OCCN1c1ccc(Cc2cnc(N3CCc4ccc(N5CCOCC5)cc4C3)s2)cc1 [Example 58] | 1.13 |  |
| CN1CCCN(c2ccc3c(c2)CN(c2ncc(Cc4ccc(C5CCOCC5)cc4)s2)CC3)C1=O [Example 59] | 0.73 |  |
| CN1CCCN(c2ccc3c(c2)CN(c2ncc(Cc4ccc(N5CCOCC5)cc4)s2)CC3)C1=O [Example 60] | 9.84 |  |
| CN1CCCN(c2ccc3c(c2)CN(c2ncc(Cc4ccc(S(C)(=O)=O)cc4)s2)CC3)C1=O [Example 61] | 4.71 |  |
| O=C1OCCN1c1ccc2c(c1)CN(c1ncc(Cc3ccc(C4CCOCC4)cc3)s1)CC2 [Example 62] | 0.362 |  |
| Cc1cn(-c2ccc3c(c2)CN(c2nc(Cc4cccc(-n5cccn5)c4)cs2)CC3)c(C)n1 [Example 66] | 4.48 |  |
| Cc1cn(-c2ccc3c(c2)CN(c2ncc(Cc4cncc(-n5cccn5)c4)s2)CC3)c(C)n1 [Example 67] | 1.19 |  |
| O=C1OCCCN1c1ccc2c(c1)CN(c1ncc(Cc3ccc(-n4cccn4)cc3)s1)CC2 [Example 69] | 4.9 |  |
| CN1CCN(c2ccc3c(c2)CN(c2ncc(Cc4ccc(-n5cccn5)cc4)s2)CC3)CC1=O [Example 70] | 2.14 |  |
| O=C1CN(c2ccc3c(c2)CN(c2ncc(Cc4ccc(-n5cccn5)cc4)s2)CC3)CCN1 [Example 71] | 10 |  |
| c1cnn(-c2ccc(Cc3cnc(N4CCc5ccc(N6CCOCC6)cc5C4)s3)cc2)c1 [Example 72] | 0.537 |  |
| O=C1CCCN1c1ccc2c(c1)CN(c1ncc(Cc3ccc(-n4cccn4)cc3)s1)CC2 [Example 73] | 0.423 |  |
